Test results: PMC4876051 (Clinical pharmacokinetics, 2016)
Like-named read-outs stand apart in the source and are kept apart here. Blank lines part the entries; values can stand above or below the compound they belong to.

What was measured:
[1] = target: T1, MATE2 (Homo sapiens, UniProt Q86VL8); conditions: overexpressing cell line; Supplemental Fig. 4
[2] = system: creatinine plasma levels; conditions: with famotidine
[3] = cited from earlier work
[4] = target: T2, MATE1 (Homo sapiens, UniProt Q96FL8); assay: cell-based
T2 sequence (Q96FL8 whole entry): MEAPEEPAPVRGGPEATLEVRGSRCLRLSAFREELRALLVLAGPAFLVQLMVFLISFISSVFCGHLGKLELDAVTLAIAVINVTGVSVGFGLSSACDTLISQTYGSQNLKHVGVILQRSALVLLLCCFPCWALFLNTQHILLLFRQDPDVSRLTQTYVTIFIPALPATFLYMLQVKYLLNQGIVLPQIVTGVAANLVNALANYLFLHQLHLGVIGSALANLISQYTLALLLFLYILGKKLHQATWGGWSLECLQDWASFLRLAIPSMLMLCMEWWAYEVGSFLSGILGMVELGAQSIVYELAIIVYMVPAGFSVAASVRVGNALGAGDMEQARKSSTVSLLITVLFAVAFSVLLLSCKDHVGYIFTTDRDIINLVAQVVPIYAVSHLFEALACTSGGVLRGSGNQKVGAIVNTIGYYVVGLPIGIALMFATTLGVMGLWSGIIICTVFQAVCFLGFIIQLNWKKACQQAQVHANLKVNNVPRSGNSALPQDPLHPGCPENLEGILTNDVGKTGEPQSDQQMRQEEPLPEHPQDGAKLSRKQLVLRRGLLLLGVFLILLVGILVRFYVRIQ

[5] = system: plasma glucose; assay: Oral glucose tolerance test; parameters: AUCglu,0.5, GMR (90%CI), metformin vs baseline / AUCglu,3, GMR (90%CI), metformin vs baseline: unit not given beside the values
[6] = target: T3, OCT1 (Homo sapiens, UniProt O15245); conditions: overexpressing cell line; Supplemental Fig. 4
T3 sequence (O15245 whole entry): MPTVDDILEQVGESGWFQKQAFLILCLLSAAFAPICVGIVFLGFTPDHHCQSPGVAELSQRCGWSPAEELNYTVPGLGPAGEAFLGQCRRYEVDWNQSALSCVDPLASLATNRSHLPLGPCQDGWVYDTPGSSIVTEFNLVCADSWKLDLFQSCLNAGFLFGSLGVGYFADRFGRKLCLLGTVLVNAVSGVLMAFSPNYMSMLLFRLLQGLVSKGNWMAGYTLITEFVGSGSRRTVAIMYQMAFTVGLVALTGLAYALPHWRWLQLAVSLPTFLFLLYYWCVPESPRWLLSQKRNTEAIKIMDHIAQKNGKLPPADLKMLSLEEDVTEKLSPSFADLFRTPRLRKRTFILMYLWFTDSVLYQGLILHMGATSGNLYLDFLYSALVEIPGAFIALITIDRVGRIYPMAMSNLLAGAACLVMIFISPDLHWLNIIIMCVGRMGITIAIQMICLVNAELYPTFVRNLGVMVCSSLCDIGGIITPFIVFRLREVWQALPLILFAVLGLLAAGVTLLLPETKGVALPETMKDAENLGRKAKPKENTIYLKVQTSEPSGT

[7] = target: T2, MATE1; conditions: MATE1 vs OCT2
[8] = for Maximal concentration of unbound famotidine in plasma ([I], Cmax,u): healthy volunteers n=12, oral famotidine 160 to 200 mg doses
[9] = cited from earlier work; remark: listed apart in the source
[10] = target: T1, MATE2; assay: cell-based
[11] = target: plasma membrane monoamine transporter (PMAT, SLC29A4) (Homo sapiens, UniProt Q7RTT9); conditions: Supplemental Fig. 7
plasma membrane monoamine transporter (PMAT, SLC29A4), sequence (Q7RTT9 whole entry): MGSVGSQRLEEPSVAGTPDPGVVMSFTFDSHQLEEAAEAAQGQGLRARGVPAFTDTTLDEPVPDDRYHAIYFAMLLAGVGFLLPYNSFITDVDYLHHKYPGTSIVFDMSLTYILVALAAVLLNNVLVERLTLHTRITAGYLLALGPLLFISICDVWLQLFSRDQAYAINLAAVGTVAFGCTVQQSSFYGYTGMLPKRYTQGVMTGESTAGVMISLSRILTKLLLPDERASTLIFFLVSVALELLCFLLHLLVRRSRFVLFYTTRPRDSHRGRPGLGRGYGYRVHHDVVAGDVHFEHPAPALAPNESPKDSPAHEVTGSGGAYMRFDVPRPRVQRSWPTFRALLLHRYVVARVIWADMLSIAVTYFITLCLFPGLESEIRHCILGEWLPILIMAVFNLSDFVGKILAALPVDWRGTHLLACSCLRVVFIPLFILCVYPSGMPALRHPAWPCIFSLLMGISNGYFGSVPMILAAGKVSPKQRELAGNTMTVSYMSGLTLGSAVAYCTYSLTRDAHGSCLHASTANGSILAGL

[12] = clinical; conditions: human, plasma and urine, oral, 200 mg
[13] = target: T2, MATE1; conditions: overexpressing cell line; Supplemental Fig. 4
[14] = Tolerability in the clinical study; conditions: twelve healthy volunteers; famotidine Cmax,u about 1.0 μM
[15] = target: T4, OCT2 (Homo sapiens, UniProt O15244); assay: cell-based
T4 sequence (O15244 whole entry): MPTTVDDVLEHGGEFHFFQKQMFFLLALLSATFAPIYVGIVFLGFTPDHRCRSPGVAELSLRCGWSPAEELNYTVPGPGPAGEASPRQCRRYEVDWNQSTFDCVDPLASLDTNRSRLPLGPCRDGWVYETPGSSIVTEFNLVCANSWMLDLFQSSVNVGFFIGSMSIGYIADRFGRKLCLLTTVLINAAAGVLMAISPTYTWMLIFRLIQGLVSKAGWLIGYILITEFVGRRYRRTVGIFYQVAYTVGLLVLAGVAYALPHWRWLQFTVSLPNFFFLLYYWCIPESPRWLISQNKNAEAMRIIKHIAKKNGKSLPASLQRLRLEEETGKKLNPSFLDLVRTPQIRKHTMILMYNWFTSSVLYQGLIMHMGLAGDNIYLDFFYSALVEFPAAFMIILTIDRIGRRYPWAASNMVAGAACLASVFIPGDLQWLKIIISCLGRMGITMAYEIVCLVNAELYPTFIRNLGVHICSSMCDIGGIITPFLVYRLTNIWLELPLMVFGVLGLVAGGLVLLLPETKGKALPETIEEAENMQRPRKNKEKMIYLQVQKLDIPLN

[16] = target: T4, OCT2; conditions: overexpressing cell line; Supplemental Fig. 4
[17] = system: creatinine (an endogenous substrate of MATE1); conditions: 12h after famotidine (200 mg) alone vs pre-famotidine
[18] = target: T3, OCT1; assay: cell-based
[19] = cited from earlier work; remark: listed apart in the source
[20] = clinical; conditions: human
[21] = population PK model, twelve healthy volunteers
[22] = glucose AUC 0 to 0.5h after 75 g glucose, n=12
[23] = glucose AUC 0 to 3h after 75 g glucose, n=12
[24] = metformin vs baseline (no drug)

T1 sequence (Q86VL8 whole entry): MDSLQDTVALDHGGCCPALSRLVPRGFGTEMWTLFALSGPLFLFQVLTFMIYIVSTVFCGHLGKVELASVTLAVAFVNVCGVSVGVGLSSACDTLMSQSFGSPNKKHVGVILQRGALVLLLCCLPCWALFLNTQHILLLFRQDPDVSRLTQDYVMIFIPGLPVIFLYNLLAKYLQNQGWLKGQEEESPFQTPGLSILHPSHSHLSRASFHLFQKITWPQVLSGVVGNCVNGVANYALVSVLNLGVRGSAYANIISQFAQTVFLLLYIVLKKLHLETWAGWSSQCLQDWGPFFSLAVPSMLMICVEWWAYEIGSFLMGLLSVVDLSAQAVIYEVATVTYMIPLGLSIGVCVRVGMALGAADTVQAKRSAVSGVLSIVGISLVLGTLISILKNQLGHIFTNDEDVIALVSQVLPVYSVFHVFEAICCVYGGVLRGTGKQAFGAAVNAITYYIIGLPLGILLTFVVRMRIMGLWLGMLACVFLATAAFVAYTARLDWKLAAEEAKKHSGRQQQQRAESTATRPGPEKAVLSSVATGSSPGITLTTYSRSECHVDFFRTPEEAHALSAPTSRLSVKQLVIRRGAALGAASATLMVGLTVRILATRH

SMILES: NC(N)=Nc1nc(CSCCC(N)=NS(N)(=O)=O)cs1 [Famotidine, famotidine]
Substrate of MATE2 [1]: unequivocal substrate | BSV-Baseline, creatinine model (R.S.E.) [2]: 18 (19%) | BSV-Phase Shift, creatinine model (R.S.E.) [2]: 2.7 (89%) | Creatinine plasma Amplitude 1, typical value (R.S.E.) ([2]; diurnal rhythm model): 1.15 (49%) mg/L | Creatinine plasma Phase Shift 1, typical value (R.S.E.) ([2]; diurnal rhythm model): 2.37 (2.6%) mg/L | Creatinine plasma Baseline, typical value (R.S.E.) ([2]; twelve healthy volunteers): 8.07 (5.5%) mg/L | Eliminated by metabolic route [3]: 30–35% | Eliminated by renal route [3]: 65–70% | IC50 [4]: 0.25 µM | Effect of famotidine alone on glucose AUC ([5]; OGTT, data not shown): no significant effect | Substrate of OCT1 [6]: unequivocal substrate | Selectivity of inhibition of metformin transport for MATE1 over OCT2 [7]: over 200 fold | Maximal concentration of unbound famotidine in plasma ([I], Cmax,u) [8]: 1000 nM | Maximal concentration of unbound famotidine in plasma ([I], Cmax,u) ([8]; listed as famotidine): 1000 ± 64 nM | BSV-CL (between subject variability) ([8]; population PK model, (R.S.E)): 6.4% (25%) | BSV-F (between subject variability) ([8]; population PK model, (R.S.E)): 26% (53%) | BSV-Lagtime (between subject variability) ([8]; population PK model, (R.S.E)): 77% (99%) | CL/F, population estimate (R.S.E) [8, 21]: 116 (7.2%) L/h | Lag time, population estimate (R.S.E) [8, 21]: 0.27 (32%) h | V/F, population estimate (R.S.E) [8, 21]: 715 (6.0%) L | ka, population estimate (R.S.E) [8, 21]: 1.14 (11%) h^−1 | Bound to plasma proteins [9]: approximately 20% | IC50 [10]: 2.5 µM | Inhibition of metformin transport by PMAT [11]: potent inhibitor | CL renal [12]: 290 ± 32 mL/min | Substrate of MATE1 [13]: unequivocal substrate | Tolerability during co-administration with metformin [14]: well tolerated | IC50 [15]: 66 µM | Substrate of OCT2 [16]: unequivocal substrate | Creatinine concentrations in plasma [17]: significantly higher | IC50 [18]: 19 µM

CL renal ([20]; plasma and urine, oral): 767 ± 70 mL/min | AUC(0-inf) ([20]; plasma, oral): 14600 ng·h/mL | Tmax ([20]; plasma, po, 1850 mg): 2 ± 0.24 h
SMILES: CN(C)C(=N)N=C(N)N [Metformin, metformin]
Ionized in blood and in urine at physiologic pH [19]: > 99% | AUCglu,0.5, mean ± SEM [5, 22]: 55 ± 1.5 mg·h/dL | AUCglu,0.5, median [5, 22]: 55 mg·h/dL | AUCglu,3, mean ± SEM [5, 23]: 356 ± 14 mg·h/dL | AUCglu,3, median [5, 23]: 343 mg·h/dL | AUCglu,0.5, GMR (90%CI), metformin vs baseline [5, 24]: 0.94 (0.90–0.98) | AUCglu,3, GMR (90%CI), metformin vs baseline [5, 24]: 0.99 (0.94–1.04) | AUCglu,0.5, GMR (90%CI), metformin vs baseline ([5]; metformin vs baseline (no drug), listed as metformin): 0.94 [0.90–0.98]
